Literature values in patent publication US20250195486A1 (Closed Loop Medicine Ltd., priority 2023, published 2025).
Entries after “also recorded” stand apart in the source; their conditions may differ. Like-named read-outs stand apart in the source and are kept apart here. Each block holds one molecule with its values, some of them ahead of it.

Key:
P-gp = P-gp (Homo sapiens, UniProt P08183)
[1] = Salazar et al. (2012)
[2] = population mean; Song et al. (2014), Phases I and II
[3] = Yin et al. (2014)
[4] = Niebecker et al. (2015)
patients with NVAF [5] = conditions: patient with normal renal function
patients with NVAF [6] = conditions: 12 weeks
[7] = not given; remark: listed apart in the source
patients with AF = conditions: atrial fibrillation
[8] = population mean, Phases I and II
[9] = population mean, Phases I, II and III
[10] = population mean, Phases I and III
[11] = normally distributed, mean 0, Krekels et al. (2016) model
[12] = population mean, Krekels et al. (2016), Phases I and III

Sequence of P-gp (P08183 whole entry): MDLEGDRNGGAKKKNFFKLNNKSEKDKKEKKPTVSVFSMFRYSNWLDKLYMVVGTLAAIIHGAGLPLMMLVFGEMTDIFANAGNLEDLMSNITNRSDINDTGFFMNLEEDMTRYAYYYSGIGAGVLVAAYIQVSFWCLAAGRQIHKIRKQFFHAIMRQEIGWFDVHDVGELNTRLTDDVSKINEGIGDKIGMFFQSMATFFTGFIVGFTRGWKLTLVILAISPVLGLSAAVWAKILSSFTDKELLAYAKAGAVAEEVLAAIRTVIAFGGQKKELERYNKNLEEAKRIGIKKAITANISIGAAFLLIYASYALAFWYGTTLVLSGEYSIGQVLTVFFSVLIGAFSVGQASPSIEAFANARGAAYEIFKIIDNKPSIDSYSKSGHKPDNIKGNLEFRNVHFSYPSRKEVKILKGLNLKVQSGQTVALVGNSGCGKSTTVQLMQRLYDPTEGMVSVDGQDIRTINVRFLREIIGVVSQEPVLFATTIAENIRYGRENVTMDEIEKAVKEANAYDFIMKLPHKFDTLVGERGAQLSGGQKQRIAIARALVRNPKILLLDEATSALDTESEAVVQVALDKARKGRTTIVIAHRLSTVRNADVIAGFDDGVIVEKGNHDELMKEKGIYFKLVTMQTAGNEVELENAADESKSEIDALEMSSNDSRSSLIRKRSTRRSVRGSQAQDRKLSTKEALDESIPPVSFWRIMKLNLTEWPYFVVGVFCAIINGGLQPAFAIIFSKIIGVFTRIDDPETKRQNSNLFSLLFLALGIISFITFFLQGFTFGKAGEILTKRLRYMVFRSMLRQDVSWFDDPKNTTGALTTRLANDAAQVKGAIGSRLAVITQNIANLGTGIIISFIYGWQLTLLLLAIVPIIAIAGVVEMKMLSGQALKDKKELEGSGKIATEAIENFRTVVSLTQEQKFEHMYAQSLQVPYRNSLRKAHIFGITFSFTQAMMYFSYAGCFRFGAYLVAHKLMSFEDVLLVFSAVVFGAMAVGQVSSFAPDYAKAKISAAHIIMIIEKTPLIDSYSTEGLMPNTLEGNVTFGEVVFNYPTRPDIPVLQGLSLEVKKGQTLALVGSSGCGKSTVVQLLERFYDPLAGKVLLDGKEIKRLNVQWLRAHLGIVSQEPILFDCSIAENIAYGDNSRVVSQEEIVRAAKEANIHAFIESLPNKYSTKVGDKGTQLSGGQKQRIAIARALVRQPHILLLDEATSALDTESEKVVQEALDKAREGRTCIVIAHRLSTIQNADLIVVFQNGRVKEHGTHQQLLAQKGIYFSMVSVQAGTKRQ

Metabolism (extent) (by CES1, CYP3A4 and glucuronidation): < 30% | time of peak plasma concentrations (following oral administration): 1 to 2 h | time of peak levels (immediate-release doses, taken without food): 1 to 2 h | time of peak levels with food (immediate-release doses, with food vs without food): an hour later | Renal clearance as share of total body clearance (in vivo): ~50% | accumulation upon repeat dosing (in vivo): minimal accumulation | effect of food on rate of absorption (in vivo): decreases the rate of absorption | effect of food on total exposure (in vivo): does not affect | increase of total systemic exposure (AUC∞) (moderate or severe renal impairment vs normal renal function): almost two-fold | bioavailability (oral): approximately 62% | terminal half-life (oral administration): 10 to 14 h | dose linearity of pharmacokinetics (over the therapeutic range of doses): linear | unchanged drug found in the faeces (partly due to biliary elimination): 30-50% | P-gp substrate status (P-gp): substrate of P-gp | Significant covariates: CRCL (PK parameters influenced) [1]: CL/F | Significant covariates: Food (PK parameters influenced) [1]: Ka | Significant covariates: P-gp inhibition (PK parameters influenced) [1]: CL/F, Ka, F | Significant covariates: Patient status (PK parameters influenced) [1]: Vc/F | CL/F [1, 8]: 36 L/h | F [1, 8]: 1 | Ka [1, 8]: 5.87 h⁻¹ | Lag time [1, 8]: 0.42 h | Q/F [1, 8]: 6.42 L/h | Vc/F [1, 8]: 244 L | Vp/F [1, 8]: 90.3 L | CL/F [2]: 32.1 L/h | Ka [2]: 3.54 h⁻¹ | Lag time [2]: 0.39 h | Q/F [2]: 8.85 L/h | Vc/F [2]: 214 L | Vp/F [2]: 134 L | Significant covariates: Age (PK parameters influenced) [3]: CL/F, Ka | Significant covariates: CRCL (PK parameters influenced) [3]: CL/F | Significant covariates: P-gp inhibition (PK parameters influenced) [3]: Vc/F, Ka, F | CL/F [3, 9]: 11.4 L/h | F [3, 9]: 0.58 | Ka [3, 9]: 1.08 h⁻¹ | Lag time [3, 9]: 0.25 h | Q/F [3, 9]: 2.73 L/h | Vc/F [3, 9]: 151 L | Vp/F [3, 9]: 42.9 L | Significant covariates: CRCL (PK parameters influenced) [4]: CL/F | Significant covariates: P-gp inhibition (PK parameters influenced) [4]: CL/F, F | Significant covariates: Race (PK parameters influenced) [4]: Vc/F | CL/F (CLNR/F) ([4]; non-renal clearance, population mean, Phases I and III): 15.5 L/h | Ka [4, 10]: 3.35 h⁻¹ | Lag time [4, 10]: 0.25 h | Q/F [4, 10]: 5.92 L/h | Vc/F [4, 10]: 209 L | Vp/F [4, 10]: 92.3 L | trough edoxaban level required to reduce the risk of a major bleeding event below 2% (patients with NVAF [5]): < 30 ng/mL | trough edoxaban level required to reduce the risk of a major bleeding event below […] (patients with NVAF [5]): < 40 ng/mL | risk of bleeding, 30 mg twice-daily vs 60 mg once-daily (patients with NVAF [6]): greater | Significant covariates: CRCL (PK parameters influenced) ([7]; Krekels et al. (2016)): CL/F | CL/F (CLNR/F) ([7]; non-renal clearance, population mean, Krekels et al. (2016), Phases I and III): 13.8 L/h | variance of ηCL/F (between-subject variability) [7, 11]: 0.0185 | variance of ηQ/F (between-subject variability) [7, 11]: 0.2285 | variance of ηVc/F (between-subject variability) [7, 11]: 0.04623 | variance of ηVp/F (between-subject variability) [7, 11]: 0.2285 | Ka [7, 12]: 2.16 h⁻¹ | Lag time [7, 12]: 0.25 h | Q/F [7, 12]: 5.75 L/h | Vc/F [7, 12]: 194 L | Vp/F [7, 12]: 88.6 L
SMILES: CN1CCc2nc(C(=O)N[C@@H]3C[C@@H](C(=O)N(C)C)CC[C@@H]3NC(=O)C(=O)Nc3ccc(Cl)cn3)sc2C1 [edoxaban]
Significant covariates: Body weight (PK parameters influenced) [1]: Vc/F | Significant covariates: Body weight (PK parameters influenced) [3]: CL/F, Vc/F | Significant covariates: Body weight (PK parameters influenced) [4]: CLNR/F, Q/F,; also recorded: Vc/F, Vp/F

SMILES: CC(=O)CC(c1ccccc1)c1c(O)c2ccccc2oc1=O (centres unmarked) [warfarin]
reduction of stroke (patients with AF): about 60%
